In patent US20250122174A1 (Shenzhen Yuanli Shenwan Innovative Medicine Co., Ltd., priority 2022, published 2025):

The molecules below were run against HPK1 (Homo sapiens (Human), UniProt Q92918) (assay: HPK1 Inhibition Assay (ADP-Glo kinase assay)). Settings: ATP 10 μM.
Format: biochemical
Summary of the method: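 ADP-Glo luminescence read-out after 1 h room-temperature kinase reaction with 10 μM ATP and 0.1 μg/ml MBP. Recombinant human HPK1 at 7.5 ng/μl; buffer 40 mM Tris pH 7.5, 20 mM MgCl2. Compounds serially diluted 5-fold over 10 points from 10 mM DMSO stock.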

Sequence of HPK1 (Q92918 1-346 limits assumed): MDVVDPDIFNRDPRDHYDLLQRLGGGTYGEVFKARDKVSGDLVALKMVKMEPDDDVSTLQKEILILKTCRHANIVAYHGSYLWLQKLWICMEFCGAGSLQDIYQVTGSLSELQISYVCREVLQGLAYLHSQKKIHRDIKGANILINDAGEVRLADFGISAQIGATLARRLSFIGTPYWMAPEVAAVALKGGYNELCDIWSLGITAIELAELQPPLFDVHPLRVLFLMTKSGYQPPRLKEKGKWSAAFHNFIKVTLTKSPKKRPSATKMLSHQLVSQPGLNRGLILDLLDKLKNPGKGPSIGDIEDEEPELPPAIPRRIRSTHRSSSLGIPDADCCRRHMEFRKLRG

IC50, < 0.1 µM:
N#Cc1ccncc1-c1ccc(NC(=O)c2ccc(=O)n(-c3c(F)cccc3F)n2)c(N2CCC(N)CC2)c1 [Example 346, N-(2-(4-aminopiperidin-1-yl)-4-(4-cyanopyridin-3-yl)phenyl)-1-(2,6-difluorophenyl)-6-oxo-1,6-dihydropyridazine-3-carboxamide]
N#Cc1ccncc1-c1ccc(NC(=O)c2ccc(=O)n(-c3c(F)cccc3F)n2)c(N2C[C@@H](N)C[C@H]2CO)c1 [Example 347, N-(2-((2S,4S)-4-amino-2-(hydroxymethyl)pyrrolidin-1-yl)-4-(4-cyanopyridin-3-yl)phenyl)-1-(2,6-difluorophenyl)-6-oxo-1,6-dihydropyridazine-3-carboxamide]
C[C@]1(N)CCN(c2cc(-c3cnccc3C#N)ccc2NC(=O)c2ccc(=O)n(-c3c(F)cccc3F)n2)C1 [Example 348, (S)-N-(2-(3-amino-3-methylpyrrolidin-1-yl)-4-(4-cyanopyridin-3-yl)phenyl)-1-(2,6-difluorophenyl)-6-oxo-1,6-dihydropyridazine-3-carboxamide]
N#Cc1ccncc1-c1ccc(NC(=O)c2ccc(=O)n(-c3c(F)cccc3F)n2)c(N2CCC(O)CC2)c1 [Example 349, N-(4-(4-cyanopyridin-3-yl)-2-(4-hydroxypiperidin-1-yl)phenyl)-1-(2,6-difluorophenyl)-6-oxo-1,6-dihydropyridazine-3-carboxamide]
N#Cc1ccncc1-c1ccc(NC(=O)c2ccc(=O)n(-c3c(F)cccc3F)n2)c(N2CCN[C@H](CO)C2)c1 [Example 350, (S)-N-(4-(4-cyanopyridin-3-yl)-2-(3-(hydroxymethyl)piperazin-1-yl)phenyl)-1-(2,6-difluorophenyl)-6-oxo-1,6-dihydropyridazine-3-carboxamide]
N#Cc1ccncc1-c1ccc(NC(=O)c2ccc(=O)n(-c3c(F)cccc3F)n2)c(N2C[C@H](N)C[C@H]2CO)c1 [Example 351, N-(2-((2S,4R)-4-amino-2-(hydroxymethyl)pyrrolidin-1-yl)-4-(4-cyanopyridin-3-yl)phenyl)-1-(2,6-difluorophenyl)-6-oxo-1,6-dihydropyridazine-3-carboxamide]
N#Cc1ccncc1-c1ccc(NC(=O)c2ccc(=O)n(-c3c(F)cccc3F)n2)c(N2CCC(N)(CO)CC2)c1 [Example 352, N-(2-(4-amino-4-(hydroxymethyl)piperidin-1-yl)-4-(4-cyanopyridin-3-yl)phenyl)-1-(2,6-difluorophenyl)-6-oxo-1,6-dihydropyridazine-3-carboxamide]
N#Cc1ccncc1-c1ccc(NC(=O)c2ccc(=O)n(-c3c(F)cccc3F)n2)c(N2CCC(F)(F)[C@@H](N)C2)c1 [Example 357, (S)-N-(2-(3-amino-4,4-difluoropiperidin-1-yl)-4-(4-cyanopyridin-3-yl)phenyl)-1-(2,6-difluorophenyl)-6-oxo-1,6-dihydropyridazine-3-carboxamide]
N#Cc1ccncc1-c1ccc(NC(=O)c2ccc(=O)n(-c3c(F)cccc3F)n2)c(N2CCC(NCCO)CC2)c1 [Example 360, N-(4-(4-cyanopyridin-3-yl)-2-(4-((2-hydroxyethyl)amino)piperidin-1-yl)phenyl)-1-(2,6-difluorophenyl)-6-oxo-1,6-dihydropyridazine-3-carboxamide]
N#Cc1ccncc1-c1ccc(NC(=O)c2ccc(=O)n(-c3c(F)cccc3Cl)n2)c(N2C[C@@H](N)C[C@H]2CO)c1 [Example 361, N-(2-((2S,4S)-4-amino-2-(hydroxymethyl)pyrrolidin-1-yl)-4-(4-cyanopyridin-3-yl)phenyl)-1-(2-chloro-6-fluorophenyl)-6-oxo-1,6-dihydropyridazine-3-carboxamide]
